Where a name gives a salt, the structure may show the parent alone.
System: peptide sequence L-Lys-D-Ala-D-Ala (Receptor)
Assay: Determination of the binding constant by Laser Light Scattering (LLS) on receptor-coated polymer particles
Conditions: Langmuir fit
Protocol: […]
After each addition the mixture was stirred for 30 seconds and let balance for 1 minute, and the scattering light intensity was measured by using a 5 milliwatt He—Ne laser and a photomultiplier to convert the scattered light into an electric signal.
The light intensity was recorded for 10 seconds for consecutive six times thus selecting the lowest value in order to minimize the noise due to the possible presence of powder in the sample. […]

CN[C@H](CC(C)C)C(=O)N[C@H]1C(=O)N[C@@H](CC(N)=O)C(=O)N[C@H]2C(=O)N[C@H]3C(=O)N[C@H](C(=O)N[C@H](C(=O)O)c4cc(O)cc(O)c4-c4cc3ccc4O)[C@H](O)c3ccc(c(Cl)c3)Oc3cc2cc(c3O[C@@H]2O[C@H](CO)[C@@H](O)[C@H](O)[C@H]2O[C@H]2C[C@](C)(N)[C@H](O)[C@H](C)O2)Oc2ccc(cc2Cl)[C@H]1O [Vancomycin, Vancomycin hydrochloride hydrate]
binding constant (receptor-ligand) (Example 1: particles of average diameter 78 nm, TFE copolymer with 40% by moles perfluoromethylvinylether, 0.4 millimole Vancomycin solution): 1.5e+06 mol⁻¹
binding constant (receptor-ligand) (Example 2: particles of average diameter 40 nm, TFE copolymer with 30% by moles TTD, 0.9 millimolar Vancomycin): 1.1e+06 mol⁻¹

From patent US20080118992A1, “Method For Measuring Molecular Interactions By Laser Light Scattering (Lls)” (UNIVERSITA DEGLI STUDI DI MILANO, priority 2004, published 2008)
